16 compounds from patent US20090215778A1, “Alpha-substituted Arylmethyl Piperazine Pyrazolo [1,5-alpha]Pyrimidine Amide Derivatives” (priority 2007, published 2009) can be followed below.

Bounds are passed on as bounds.

The target in assay [1] is T1, HIV Env six-helix bundle (6HB) structure (Human immunodeficiency virus type 1 group M subtype B, UniProt P04579).
T1 construct: H9 cells chronically infected with HIV-1 (H9/HIV-1RF); endogenous in cells; host or cells: H9 cells chronically infected with HIV-1 strain RF (Env is made from the virus in the infected cells, not by transfection)
Kind of assay: Six-helix bundle (6HB) assay. The assay is classed as cell-based, HIV-1 (strain RF). In a few lines:
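Chronically HIV-1 RF-infected H9 cells (12-40 days post-infection), 2.5×10^5 per well, were preincubated with compound for 30 min at 37 °C. sCD4 at 1 μg/mL was added for 1 h to trigger Env changes. 6HB-specific rabbit serum (1 h, 37 °C) was then added, followed by PE anti-rabbit (45 min, 4 °C), with flow cytometric fluorescence read-out.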

The next assay deals with HIV-1, NL4-3 strain. The assay is described as follows: Virus infection assay (virus entry and single-cycle infection). Format: cell-based. The conditions noted are these: Human immunodeficiency virus 1, NL43, TZM-b1, read-out: Nl4. In a few lines:
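TZM-b1 cells (CD4, CXCR4, CCR5; LTR-driven lacZ/luciferase reporters) were infected with HIV-1 NL4-3 (MOI 0.01) with 80 μg/mL DEAE-dextran in the presence of test compound, 4 h at 37 °C before adding complete medium. Infection was quantified one day post-infection as chemiluminescent β-galactosidase signal.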

T1 sequence (P04579 32-519): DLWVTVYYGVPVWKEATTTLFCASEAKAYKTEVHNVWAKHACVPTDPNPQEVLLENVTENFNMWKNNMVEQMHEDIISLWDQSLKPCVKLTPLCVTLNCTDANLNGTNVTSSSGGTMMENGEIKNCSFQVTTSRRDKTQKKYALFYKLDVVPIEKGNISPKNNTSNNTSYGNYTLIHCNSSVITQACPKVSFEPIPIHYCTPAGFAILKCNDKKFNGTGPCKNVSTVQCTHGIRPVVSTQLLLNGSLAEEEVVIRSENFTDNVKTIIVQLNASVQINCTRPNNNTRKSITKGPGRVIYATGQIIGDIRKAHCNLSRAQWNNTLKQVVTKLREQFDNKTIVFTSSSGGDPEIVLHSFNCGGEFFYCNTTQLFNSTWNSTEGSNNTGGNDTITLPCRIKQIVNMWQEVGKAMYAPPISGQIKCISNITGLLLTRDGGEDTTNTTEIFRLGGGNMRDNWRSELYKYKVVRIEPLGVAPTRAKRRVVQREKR
T1 sequence (P04579 520-865): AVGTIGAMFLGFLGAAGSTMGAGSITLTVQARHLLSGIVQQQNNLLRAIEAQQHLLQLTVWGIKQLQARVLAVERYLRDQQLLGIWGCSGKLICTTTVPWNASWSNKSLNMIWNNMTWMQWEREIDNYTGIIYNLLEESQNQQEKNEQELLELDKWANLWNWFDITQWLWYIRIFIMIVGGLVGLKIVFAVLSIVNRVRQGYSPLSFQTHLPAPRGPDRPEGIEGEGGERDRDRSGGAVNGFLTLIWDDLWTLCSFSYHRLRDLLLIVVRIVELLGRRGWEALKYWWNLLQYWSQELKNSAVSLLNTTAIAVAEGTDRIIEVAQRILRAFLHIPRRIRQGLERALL

Regarding `COc1ccc(-c2nc3c(C(=O)N4CCN(C(CO)c5cccc(OC)c5)C[C@H]4C)cnn3c(C(F)(F)F)c2C)cc1` (stereo partly drawn) [methanone, [(2R)-4-[2-hydroxy-1-(3-methoxyphenyl)ethyl]-2-methyl-1-piperazinyl][5-(4-methoxyphenyl)-6-methyl-7-(trifluoromethyl)pyrazolo[1,5-α]pyrimidin-3-yl]-], the IC50 in assay [1] is below 1 µM; in the assay with HIV-1, NL4-3 strain, below 1 µM.
Regarding `COc1ccc(-c2nc3c(C(=O)N4CCN(C(CO)c5cccnc5)C[C@H]4C)cnn3c(C(F)(F)F)c2C)cc1` (stereo partly drawn) [methanone, [(2R)-4-[2-hydroxy-1-(3-pyridinyl)ethyl]-2-methyl-1-piperazinyl][5-(4-methoxyphenyl)-6-methyl-7-(trifluoromethyl)pyrazolo[1,5-α]pyrimidin-3-yl]-], the IC50 in assay [1] is below 1 µM; in the assay with HIV-1, NL4-3 strain it was above 10.1 µM.
As for `COc1ccc(-c2nc3c(C(=O)N4CCN(C(CO)c5ccsc5)C[C@H]4C)cnn3c(C(F)(F)F)c2C)cc1` (stereo partly drawn) [methanone, [(2R)-4-[2-hydroxy-1-(3-thienyl)ethyl]-2-methyl-1-piperazinyl][5-(4-methoxyphenyl)-6-methyl-7-(trifluoromethyl)pyrazolo[1,5-α]pyrimidin-3-yl]-], the IC50 in assay [1] is below 1 µM; in the assay with HIV-1, NL4-3 strain, below 1 µM.
Regarding `COc1ccc(-c2nc3c(C(=O)N4CCN(C(CO)c5cnccc5OC)C[C@H]4C)cnn3c(C(F)(F)F)c2C)cc1` (stereo partly drawn) [methanone, [(2R)-4-[2-hydroxy-1-(4-methoxy-3-pyridinyl)ethyl]-2-methyl-1-piperazinyl][5-(4-methoxyphenyl)-6-methyl-7-(trifluoromethyl)pyrazolo[1,5-α]pyrimidin-3-yl]-], the IC50 in assay [1] was below 1 µM; in the assay on HIV-1, NL4-3 strain, below 1 µM.
Regarding `COc1ccc(-c2nc3c(C(=O)N4CCN(C(CO)c5ccc(OC)cc5)C[C@H]4C)cnn3c(C(F)(F)F)c2C)cc1` (stereo partly drawn) [methanone, [(2R)-4-[2-hydroxy-1-(4-methoxyphenyl)ethyl]-2-methyl-1-piperazinyl][5-(4-methoxyphenyl)-6-methyl-7-(trifluoromethyl)pyrazolo[1,5-α]pyrimidin-3-yl]-], the IC50 in assay [1] is below 1 µM; in the assay on HIV-1, NL4-3 strain, below 1 µM.
As for `COc1ccc(-c2nc3c(C(=O)N4CCN(C(CO)c5cc(C)cs5)C[C@H]4C)cnn3c(C(F)(F)F)c2C)cc1` (stereo partly drawn) [methanone, [(2R)-4-[2-hydroxy-1-(4-methyl-2-thienyl)ethyl]-2-methyl-1-piperazinyl][5-(4-methoxyphenyl)-6-methyl-7-(trifluoromethyl)pyrazolo[1,5-α]pyrimidin-3-yl]-], the IC50 was below 1 µM in assay [1] and below 1 µM in the assay on HIV-1, NL4-3 strain.
Consider `COc1ccc(-c2nc3c(C(=O)N4CCN(C(CO)c5ccc(OC)nc5)C[C@H]4C)cnn3c(C(F)(F)F)c2C)cc1` (stereo partly drawn) [methanone, [(2R)-4-[2-hydroxy-1-(6-methoxy-3-pyridinyl)ethyl]-2-methyl-1-piperazinyl][5-(4-methoxyphenyl)-6-methyl-7-(trifluoromethyl)pyrazolo[1,5-α]pyrimidin-3-yl]-], for which the IC50 is below 1 µM in assay [1] and below 1 µM in the assay with HIV-1, NL4-3 strain.
For the compound `COc1ccc(-c2nc3c(C(=O)N4CCN(C(CO)c5ccccc5OC(F)(F)F)C[C@H]4C)cnn3c(C(F)(F)F)c2C)cc1` (stereo partly drawn) [methanone, [(2R)-4-[2-hydroxy-1-[2-(trifluoromethoxy)phenyl]ethyl]-2-methyl-1-piperazinyl][5-(4-methoxyphenyl)-6-methyl-7-(trifluoromethyl)pyrazolo[1,5-α]pyrimidin-3-yl]-], the IC50 lay in the range of 1.1 to 10 µM in assay [1] and 1.1 to 10 µM in the assay with HIV-1, NL4-3 strain.
Regarding `COc1ccc(-c2nc3c(C(=O)N4CCN(C(CO)c5ccccc5C(F)(F)F)C[C@H]4C)cnn3c(C(F)(F)F)c2C)cc1` (stereo partly drawn) [methanone, [(2R)-4-[2-hydroxy-1-[2-(trifluoromethyl)phenyl]ethyl]-2-methyl-1-piperazinyl][5-(4-methoxyphenyl)-6-methyl-7-(trifluoromethyl)pyrazolo[1,5-α]pyrimidin-3-yl]-], the IC50 was below 1 µM in assay [1] and below 1 µM in the assay on HIV-1, NL4-3 strain.
Regarding `COc1ccc(-c2nc3c(C(=O)N4CCN(C(CO)c5cccc(N6CCNCC6)c5)C[C@H]4C)cnn3c(C(F)(F)F)c2C)cc1` (stereo partly drawn) [methanone, [(2R)-4-[2-hydroxy-1-[3-(1-piperazinyl)phenyl]ethyl]-2-methyl-1-piperazinyl][5-(4-methoxyphenyl)-6-methyl-7-(trifluoromethyl)pyrazolo[1,5-α]pyrimidin-3-yl]-], the IC50 was above 10.1 µM in assay [1] and above 10.1 µM in the assay with HIV-1, NL4-3 strain.
Take `COc1ccc(-c2nc3c(C(=O)N4CCN(C(CO)c5cccc(N6CCCC6)c5)C[C@H]4C)cnn3c(C(F)(F)F)c2C)cc1` (stereo partly drawn) [methanone, [(2R)-4-[2-hydroxy-1-[3-(1-pyrrolidinyl)phenyl]ethyl]-2-methyl-1-piperazinyl][5-(4-methoxyphenyl)-6-methyl-7-(trifluoromethyl)pyrazolo[1,5-α]pyrimidin-3-yl]-]: the IC50 in assay [1] was below 1 µM; in the assay with HIV-1, NL4-3 strain, below 1 µM.
For `COc1ccc(-c2nc3c(C(=O)N4CCN(C(CO)c5cccc(N6CCOCC6)c5)C[C@H]4C)cnn3c(C(F)(F)F)c2C)cc1` (stereo partly drawn) [methanone, [(2R)-4-[2-hydroxy-1-[3-(4-morpholinyl)phenyl]ethyl]-2-methyl-1-piperazinyl][5-(4-methoxyphenyl)-6-methyl-7-(trifluoromethyl)pyrazolo[1,5-α]pyrimidin-3-yl]-], the IC50 in assay [1] was in the range of 1.1 to 10 µM; in the assay with HIV-1, NL4-3 strain it was 1.1 to 10 µM.
Turning to `COc1ccc(-c2nc3c(C(=O)N4CCN(C(CO)c5cccc(S(C)(=O)=O)c5)C[C@H]4C)cnn3c(C(F)(F)F)c2C)cc1` (stereo partly drawn) [methanone, [(2R)-4-[2-hydroxy-1-[3-(methylsulfonyl)phenyl]ethyl]-2-methyl-1-piperazinyl][5-(4-methoxyphenyl)-6-methyl-7-(trifluoromethyl)pyrazolo[1,5-α]pyrimidin-3-yl]-], the IC50 in assay [1] is above 10.1 µM; in the assay with HIV-1, NL4-3 strain, above 10.1 µM.
Turning to `COc1ccc(-c2nc3c(C(=O)N4CCN(C(CO)c5cccc(OC(F)(F)F)c5)C[C@H]4C)cnn3c(C(F)(F)F)c2C)cc1` (stereo partly drawn) [methanone, [(2R)-4-[2-hydroxy-1-[3-(trifluoromethoxy)phenyl]ethyl]-2-methyl-1-piperazinyl][5-(4-methoxyphenyl)-6-methyl-7-(trifluoromethyl)pyrazolo[1,5-α]pyrimidin-3-yl]-], the IC50 in assay [1] was below 1 µM; with HIV-1, NL4-3 strain it was below 1 µM.
For the compound `COc1ccc(-c2nc3c(C(=O)N4CCN(C(CO)c5cccc(C(F)(F)F)c5)C[C@H]4C)cnn3c(C(F)(F)F)c2C)cc1` (stereo partly drawn) [methanone, [(2R)-4-[2-hydroxy-1-[3-(trifluoromethyl)phenyl]ethyl]-2-methyl-1-piperazinyl][5-(4-methoxyphenyl)-6-methyl-7-(trifluoromethyl)pyrazolo[1,5-α]pyrimidin-3-yl]-], the IC50 was below 1 µM in assay [1] and 1.1 to 10 µM in the assay with HIV-1, NL4-3 strain.
As for `COc1ccc(-c2nc3c(C(=O)N4CCN([C@@H](CO)c5cccc(OC)c5F)C[C@H]4C)cnn3c(C(F)(F)F)c2C)cc1` [methanone, [(2R)-4-[(1R)-1-(2-fluoro-3-methoxyphenyl)-2-hydroxyethyl]-2-methyl-1-piperazinyl][5-(4-methoxyphenyl)-6-methyl-7-(trifluoromethyl)pyrazolo[1,5-α]pyrimidin-3-yl]-], the IC50 is below 1 µM in assay [1] and below 1 µM in the assay on HIV-1, NL4-3 strain.
